Data on two compounds can be found in patent publication US5126258A (priority 1988, dated 1992).

Common to all, as to type: biochemical, mouse
One experiment deals with Monoclonal Receptor 37G2. Briefly: Kinetics of hydrolysis by receptor 37G2. The source says:
(§1) Reaction kinetics were studied using three reactant ligands as substrates for monoclonal receptors 37G2 and 22F5. Data from initial rates were consistent with Michaelis-Menten reaction mechanism for a usual enzyme-substrate system. Initial rates were followed using at 271 nm using a U.V.-visible spectorphotometer for Compound 17, and a fluorescence spectrometer for Compounds 5 and 20, using an excitation wavelength of 355 nm and an emission wavelength of 455 nm for both compounds.
Lineweaver-Burke plots for the catalyzed hydrolysis of Compounds 17, 5 and 20 obtained in the presence and absence of Compound 12i as inhibitor were prepared as discussed for FIG. 4. In particular, Compound 17 was present at concentrations of 1-16 uM with inhibitor concentrations of 100 and 300 nanomolar (nM). Compound 5 was present at concentrations of 1-10 uM with inhibitor concentrations of 100 and 200 nM. Compound 20 was present at concentrations of 2-20 uM with inhibitor concentrations of 25 and 100 nM. […]
(§2) 50 mM phosphate buffer at a pH value of 8.0. The reactant ligand was
(§3) dissolved in dioxane and admixed in the amounts discussed above. Two
(§4) milliliters of reaction solution were utilized as was a dioxane
concentration of 2 percent by volume. Assays with Compound 17 as reac tan
ligand utilized 500 nanomolar receptor (based on a molecular weight of
150,000 daltons) in the above buffer, using the reactant ligand dissolved
in dioxane and a total dioxane concentration of 2 percent by volume.

In experiment [1] the test system is monoclonal receptor P3 6D4. Briefly: Stoichiometric transacylation reaction of monoclonal receptor P3 6D4 with coumarin ester Compound 5 (fluorescence) and its inhibition/inactivation. In outline:
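Antibody P3 6D4 (100 nM final) reacted at 23 °C with coumarin ester 5 in Tris-HCl or phosphate buffer (50 mM, pH 4–9), followed by fluorescence (ex 355/em 455 nm). Initial rates corrected for spontaneous hydrolysis; kinetic parameters from hyperbolic and double-reciprocal fits, Ki from Lineweaver-Burk with ≥5 inhibitor concentrations.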

For experiment [2], the system named is anti-Compound 4i antibodies. Description: Fluorescence esterolytic assay of twelve anti-Compound 4i gamma-globulins with Compound 5. Particulars: two of twelve anti-Compound 4i antibodies, first 5 minutes of incubation. The procedure: A Perkin-Elmer LS-5 fluorescence spectrometer was operated at a fixed wavelength, using 355 nanometers (nm) for excitation and measuring the emission at 455 nm. A stock solution of the coumarin ester 5 was prepared in dioxane and was diluted to the desired concentrations in Tris-HCl (50 mM, pH 7) or sodium phosphate (50 mM, pH 4-9).
Reactions were run at 23 degrees C and were initiated by the addition of an aliquot of antibody solution (1 mg/ml) to substrate solutions to provide a final protein concentration of 100 nM. Final fluorescence values were determined by hydrolysis of the substrate with pig liver esterase. The observed reaction rate was corrected for spontaneous hydrolysis. Reaction kinetics were studied by measuring initial rates under pseudo-first order conditions. Active protein concentration was extrapolated from fluorescence values at the end of the reaction. The kinetic parameters were obtained by fitting the data to a hyperbolic curve and from double reciprocal plots. Inhibition constants were determined from the Lineweaver-Burk plot data with at least five inhibitor concentrations. […]
The fluorescence change upon hydrolysis of coumarin esters is easily detectable at nanomolar concentrations.
The practical range of pH for the assay is limited by the rapid spontaneous rate of hydrolysis of an ester Compound 5 above pH 8.0. […] Any change in fluorescence above background was noted. […]

In the next experiment the test system is P2 57G4. Briefly: Catalytic hydrolysis by receptor P2 57G4. Here is the method:
Two further catalytic monoclonal receptors were similarly prepared by another fusion using Compound 2i linked to an antigenic carrier as immunogen. Those two catalytic receptor molecules and their hybridomas were designated "P2 50D8" and "P2 57G4".
In one study, twenty-eight monoclonal anti-hapten antibodies to phosphonate 2i from two separate fusion experiments were assayed. […] Antibodies to Compound 4i as hapten were assayed in the same manner. Twelve gamma-globulins were screened as described above. Compound 5 is homologous only in the acyl portion of this larger hapten; however, all but three of these cross-reacted with smaller phosphonate 2 in an ELISA assay as described herein. For two of these there was observed a fluorescence change, occurring in the first 5 minutes of incubation, which corresponds to about 50 percent of that for complete hydrolysis. The background rate of hydrolysis was reestablished after this initial reaction leveled off.

The next experiment concerns Monoclonal Receptor 22F5. Description: Kinetics of hydrolysis by receptor 22F5.
From the text: as §1
Lineweaver-Burke plots for the catalyzed hydrolysis of Compounds 17, 5 and 20 obtained in the presence and absence of Compound 12i as inhibitor were prepared as discussed for FIG. 4. In particular, Compound 17 was present at concentrations of 1-16 uM with inhibitor concentrations of 100 and 300 nanomolar (nM). Compound 5 was present at concentrations of 1-10 uM with inhibitor concentrations of 100 and 200 nM. Compound 20 was present at concentrations of 2-20 uM with inhibitor concentrations of 25 and 100 nM.
*Fluorescence assays using Compounds 20 and 5 were carried out in a
PerkinElmer fluorescence spectrophotometer (moded LS5; Oakbrook, IL) usin
200 nanomolar receptor (based on a molecular weight of 150,000 daltons) i
as §2, §3, §4
concentration of 2 percent by volume. […]

As to `CC(=O)Nc1ccc(CC(=O)Oc2cccc3ccccc23)cc1` [Compound 17], the Km (in general, the concentration of substrate that gives half-maximal velocity) in the experiment on Monoclonal Receptor 37G2 (50 mM phosphate pH 8.0, 500 nM receptor, 2% dioxane, figure = Km × 10^6) turned out to be 15 µM. The kcat (usually the number of substrate molecules converted per active site and unit of time at saturation) in the experiment on Monoclonal Receptor 37G2 (pH 8.0) came to 0.0016 s⁻¹. Further, the maximal velocity (Vmax) (commonly the top rate of the reaction or transport when substrate is in excess) in the experiment with Monoclonal Receptor 37G2 (pH 8.0, 500 nM receptor, figure = Vmax × 10^9) stood at 0.042 µM/min.

Regarding `O=C(Cc1ccc(NC(=O)C(F)(F)F)cc1)Oc1ccc2ccc(=O)oc2c1` [Compound 5], in experiment [1], the inactivation of receptor entry was “specific inactivator”. Further, the “stoichiometry, mole of ester per mole of combining sites” value in experiment [1] (IgG molecular weight 150,000 assumed) is “one”. The “rate change pH 8.0 versus pH 7.0” value in experiment [1] (preliminary) is “modest rate increase”. For the same compound, the “fluorescence change as share of complete hydrolysis” value in experiment [2] is reported as “about 50%”. Besides, the “catalytic hydrolysis by P2 57G4” value with P2 57G4 is “capable of catalytically hydrolyzing”. Besides, in the experiment on Monoclonal Receptor 22F5 (50 mM phosphate pH 8.0, 200 nM receptor, 2% dioxane, figure = Km × 10^6), the Michaelis-Menten constant (Km) stood at 1400 nM. Besides, the kcat in the experiment on Monoclonal Receptor 22F5 (pH 8.0) is 0.0022 s⁻¹. In addition, the Vmax in the experiment with Monoclonal Receptor 22F5 (pH 8.0, 200 nM receptor, figure = Vmax × 10^9) was determined as 0.0912 µM/min.
